# Reference: patent EP0151964A2, “New derivatives of alpha-amino-gamma-butyrolactone, method for the preparation thereof and pharmaceutical compositions containing them” (priority 1984, dated 1985)
# Experiments:
# [1] = Sedation of laboratory animals; format: in vivo; conditions: dose of about 50 mg/kg
# Procedure: The compound was administered to laboratory animals at a dose of about 50 mg/kg. The animals were sedated.
# A good yield of α-n-pentylcarbonyl-amino-γ-butyrolactone is ob= tained. The compound was administered to laboratory animals at a dose of about 50 mg/kg. The animals were sedated.
# [2] = Enhancement of the hypnotic effect of sodium pentobarbital (loss of righting reflex); format: in vivo; conditions: mouse
# Procedure: 40 mg, kgof sodium pentobarbital was injected intraperitoneal ly into mice and note was taken of animals losing the righting re= flex and for how long. Other mice received a preliminary treat= ment with PTT-01 at a dosage of 25 and 50 mg/kg, intraperitoneally and thereafter sodium pentobarbital was given.
# [3] = Antagonism towards electroshock (maximal electroshock, MES); format: in vivo; conditions: mouse; for Number of animals with Clonic convulsions / Number of animals with Tonic convulsions: treated animals in parentheses
# Procedure: Electroshock was produced in mice by applying ear electrodes. Stimulation parameters which could induce the maximal electroshok (MES) were adopted. This was obtained by applying rectangular input shocks for 0.6 seconds. Each input lasted […] and the input frequency was 25/sec. Phenobarbital sodium was used as control substance. […]
# [4] = Antagonism towards d-amphetamine: amphetamine-induced hypermobility; format: in vivo, mice; design: reference not given here
# Procedure: (§1) This particular feature of the compound could be deduced from the influence the compound exerted on: (a) d-amphetamine toxicity to mice kept in group, and (b) response time of une avoidance re= flex.
# Six groups of 4 mice each were treated with 5 mg/kg of d-am= phetamine sulfate by intraperitoneal administration. Six groups of 4 animals each received the same dose of d-amphetamine sulfate plus 25 mg/kg of PTT-01 intraperitoneally, 15 minutes after d-am= phetamine sulfate; six groups of 4 animals each received saline solution and were used as controls. Spontaneous mobility was ob= served in every animal according to the procedure described herein before. The number of times each animal crossed the light beam throughout the 10 minutes test was noted. As appears from Table 4, the treatment with PTT-01 aid not prevent d-amphetamine from stimulating spontaneous mobility.
# [5] = Antagonism towards strychnine: protection from death caused by hypodermic injection; format: in vivo; conditions: mouse, single oral 50 mg/kg dose, 1.2 mg/kg strichnine sulfate, groups of six
# Procedure: (§2) This type of antagonism was evaluated in the mouse as follows: (1) protection from death caused by a hypodermic injection of strychnine; (2) evaluation of the LD50 of strychnine both in mice treated and untreated with PTT-01 and (3) influence on the time re quired to cause animals to die by slow intravenous perfusion of strychnine.
# Groups of six mice were used. Results are given in Ta= ble 5.
# Choleresis = format: in vivo; conditions: single 50 mg/kg oral dose
# Procedure: (§3) The effect of a single 50 mg/kg oral dose of PTT-01 was deter mined on (a) diuresis in water-loaded rats, (b) choleresis, (c) ex cretion rate of intravenously injected bromosulphonphthalein in bi le, (d) arterial blood pressure.
# [6] = Electrode recording in the unrestrained cat; format: in vivo; conditions: permanent electrodes, 50 or 100 mg/kg
# [7] = Antagonism towards strychnine: time to death under slow intravenous infusion; format: in vivo; conditions: mice; for mean infusion time to cause death: infusion rate 0.25 ml/min
# Procedure: as §2
# (3) continuous intravenous infusion at constant rate (0.4 ml/min) of a strychnine sulfate solution (26.66 mg/l) was carried out by injection in a tail vein in mice until they died. One group of aninals received 50 mg/kg of PTT-01 as preliminary treatment 15 mi nutes before the beginning of the infusion. The mean infusion ti me to cause six controls to die was 134 ± 3.2 seconds (mean + SE). The mean infusion time required to obtain the same effect in animals pretreated with PTT-01 was 210 ± 6.1 seconds.
# In another experiment the infusion rate of strychnine was low ered to 0.25 ml/min. Under this conditions, the mean infusion ti me was 246 ± 3.1 seconds in the case of controls (six animals) and 338 ± 24.3 seoondss in treated animals.
# When the above mentioned infusion rate was maintained, while redu= cine the amount of PTT-01 to 25 mg/kg, the mean infusion time was 260 + 13.4 seconds in controls and 360 + 21.2 seconds in the treat ed animals.
# [8] = Acute toxicity in animals; format: in vivo, rats ( Wistar-Morini Strain); conditions: for LD50: aqueous 1% suspension of tragacanth gum
# Procedure: PTT-01 was administered to adult rats ( Wistar-Morini Strain) of both sexes after fasting overnight. It was administered in an aqueous 1% suspension of tragacanth gum orally by gastric probe or intraperitoneally.
# [9] = Avoidance reflex (response time in two-chamber conditioning cage); format: in vivo; conditions: four conditioned mice, controls 53.3±4.5 sec
# Description: as §1
# A conditioning cage consisting of two chambers was used, with free access between the chambers. The floor of one compartment was electrified to make it possible to deliver a mild shook. Eice were conditioned by first giving a warning signal and then,af ter a short period of time the shock was applied. Mice learned to leave the electrified compartment after the warning bell soun= ded were then judged to be conditioned. The average period of ti me, in this experiment, for controls (4) within which they leave the compartment was 53.3±4.5 sec. Four conditioned mice were given PTT-01 intraperitoneally(25 mg/kg); time within which they left the compartment was 60.6 + 3.9 sec. Four conditioned mice treat= ed with 50 mg/kg of PTT-C1 left the compartment only after 77.5 ± 2.7 sec.
# [10] = Spontaneous mobility (interruptions of a light beam in 10 minutes); format: in vivo; conditions: mice, controls fell to 71.4%
# Procedure: Several groups of 4 mice each were placed in an apparatus de signed to provide a measure of spontaneous mobility by counting the number of interruptions of a light beam for a period of 10 mi= nutes. After preliminary measurement of mobility, animals were injected with PTT-01 (25 and 50 mg/kg) intraperitoneally. Con= trols received saline solution. Then minutes thereafter the mea= surement of mobility was repeated. Five groups of mice were used as controls and 6 other groups were treated with varying doses of PTT-01.
# [11] = Mortality from d-amphetamine in mice kept in group; format: in vivo; conditions: eight grouped mice, same amount (25 mg/kg) i.p. 10 minutes before 10 mg/kg d-amphetamine sulfate i.p.; all eight controls died
# Procedure: as §1
# However, PTT-01 reduced mortality from d-amphetamine. The same amount of PTT-01 was injected intraperitoneally. Then, 10 minutes later, an intraperitoneal injection of 10 mg/kg of d-amphe tamine sulfate was administered. Eight animals were used in this test and kept in a 25 x 20 x 14 om cage in an air-conditioned room (20°C, 6C,- humidity). […]
# [12] = Sleep in cats conditioned to sleep for 8 hours; format: in vivo; conditions: 25 and 35 mg/kg
# Rotating bar test = format: in vivo; conditions: trained mice, group of five
# Procedure: Mice were trained to remain on a rotating bar for at least 3 minutes. A group of five of the trained mice were given an intra peritoneal injection of 25 mg/kg of PTT-01 in a 1% suspension of tragacanth gum. Another group of five mice were given an intra= peritoneal injection of 50 mg/kg of PTT-01 in a 1% suspension of tragacanth gum. All control animals stayed on the bar for 3 mi= nutes.
# [13] = Excretion rate of intravenously injected bromosulphonphthalein in bile; format: in vivo; conditions: single 50 mg/kg oral dose
# Procedure: as §3
# Arterial blood pressure = format: in vivo; conditions: single 50 mg/kg oral dose
# Procedure: as §3
# [14] = Diuresis in water-loaded rats; format: in vivo
# [15] = Subacute toxicity in animals; format: in vivo; conditions: 8 rats, 50 mg/kg daily for 6 consecutive days
# Procedure: Accor= dingly, 8 rats were given 50 mg/kg daily for 6 consecutive days.
# [16] = Influence on the electromyogram, rabbit with cortical electrodes; format: in vivo; conditions: electrodes implanted in cerebral cortex, 50 mg/kg intraperitoneal, similar to 30 mg/kg intravenous phenobarbital sodium
# Procedure: The effect was similar to the effect caused by 30 mg/kg of intravenous phenobarbital sodium.
# [17] = 40 mg/kg i.p. 10 minutes before electroshock
# [18] = I 25 mg/kg + II 40 mg/kg intraperitoneally
# [19] = I 50 mg/kg + II 40 mg/kg intraperitoneally
# [20] = 25 mg/kg i.p. 10 minutes before electroshock
compound,measurement,setting,value
"CC(C)CC(=O)NC1CCOC1=O (stereo not drawn) [Example 2, α-isobutylcarbonyl-amino-γ-butyrolactone]",sedation,[1],sedated
"CCCCCC(=O)NC1CCOC1=O (stereo not drawn) [Example 3, α-n-pentylcarbonyl-amino-γ-butyrolactone]",sedation,[1],sedated
"CCCC(C)C1(CC)C(=O)NC(=O)NC1=O (stereo not shown) [II, sodium pentobarbital, reference compound]",Animals under hypnosis/ treated,[2]; II 40 mg/kg intraperitoneally alone,3/4
same,Duration of hypnosis in minutes (m± SE),"[2]; II 40 mg/kg intraperitoneally alone, zero assigned to animals not losing the righting reflex",3.25 ± 3.4 min
"CCC1(c2ccccc2)C(=O)NC(=O)NC1=O [Phenobarbital Na, Phenobarbital sodium, reference compound]",Number of animals Dead,[3]; [17],0/8
same,Number of animals with Clonic convulsions,[3]; [17],8 (8)
same,Number of animals with Tonic convulsions,[3]; [17],0 (8)
"C[C@H](N)Cc1ccccc1 [d-amphetamine, reference compound]",Mean number of crossings (± SE) in 10 minutes,"[4]; mouse, in vivo",657 ± 59
α-n-butylcarbonyl-amino-γ-butyrolactone [PTT-01],protection against the lethal effect of strichnine sulfate,[5],protected all the animals
same,choleresis,Choleresis,No treatment caused any signi= ficant change
same,sedation and electromyographic alterations,[6],sedation oc= curred without electromyographic alterations
same,mean infusion time to cause death,"[7]; 25 mg/kg, controls 260 + 13.4",360 + 21.2 seconds
same,mean infusion time to cause death (mean + SE),"[7]; 50 mg/kg 15 minutes before infusion, strychnine sulfate 26.66 mg/l at 0.4 ml/min, controls 134 ± 3.2",210 ± 6.1 s
same,mean infusion time to cause death,"[7]; 50 mg/kg, controls 246 ± 3.1",338 ± 24.3 s
same,Animals under hypnosis/ treated,[2]; [18],4/4
same,Duration of hypnosis in minutes (m± SE),[2]; [18],52.5 ± 13 min
same,Animals under hypnosis/ treated,[2]; [19],4/4
same,Duration of hypnosis in minutes (m± SE),[2]; [19],75.2 ± 21.6 min
same,effect in rats,[8]; 50 mg/kg by oral route,did not cause any particular effect
same,effect in rats,[8]; 100 mg/kg by oral route,mild sedative effect
same,duration of the sedative and hypnotic effects,"[8]; rats, acute toxicity doses, animal returned to normal",not long lasting
same,sedative effect,"[8]; rats, from the lowest intraperitoneal dose",the sedative effect was obtained
same,loss of the righting reflex,"[8]; rats, highest oral dose",not cause the loss of the righting reflex
same,sedative effect,"[8]; rats, highest oral dose",produced a sedative effect
same,loss of the righting reflex,"[8]; rats, intraperitoneal, 1 g/kg",the loss of the righting reflex occurred
same,LD50,"[8]; rats, intraperitoneally",more than 2 g/kg
same,LD50,"[8]; rats, orally by gastric probe",more than 2 g/kg
same,time within which they left the compartment,[9]; 25 mg/kg intraperitoneally,60.6 + 3.9 sec
same,time within which they left the compartment,[9]; 50 mg/kg,77.5 ± 2.7 s
same,"mobility, % of the base-line values",[10]; 25 mg/kg intraperitoneally,31.9%
same,"mobility, % of the base-line values",[10]; 50 mg/kg intraperitoneally,23.1%
same,animals died,[11],5 of the eight
same,number of cases of REM sleep,[12],reduced the number of cases of REM sleep
same,total sleeping time,[12],did not modify the total sleeping time
same,Number of animals Dead,[3]; [20],0/8
same,Number of animals with Clonic convulsions,[3]; [20],8 (8)
same,Number of animals with Tonic convulsions,[3]; [20],0 (8)
same,mice staying on the bar for 3 minutes,Rotating bar test; 25 mg/kg intraperitoneal,two out of the five
same,mice staying on the bar for 3 minutes,Rotating bar test; 50 mg/kg intraperitoneal,none
same,Mean number of crossings (± SE) in 10 minutes,"[4]; mice, d-amphetamine 5 mg/kg i.p. + 25 mg/kg i.p. given 15 minutes after d-amphetamine",836 ± 100
same,excretion rate of intravenously injected bromosulphonphthalein in bile,[13],No treatment caused any signi= ficant change
same,arterial blood pressure,Arterial blood pressure,No treatment caused any signi= ficant change
same,diuresis in water-loaded rats,[14]; single 50 mg/kg oral dose,No treatment caused any signi= ficant change
same,rate of urine excretion,"[14]; water-loaded rats, daily oral dose of 50 mg/kg for five subsequent days",slowed
same,sedative effect or other abnormal symptoms,[15],No sedative effect or other abnormal symptoms were observed
same,electromyographic tracing,[16],tracing to become flat
